Consider 40 compounds from ChEMBL document CHEMBL1124371, “A novel solution-stable, water-soluble prodrug type for drugs containing a hydroxyl or an NH-acidic group” (J Med Chem, 1989).

For this series, the species on record is Homo sapiens. Put plainly: Ester prodrugs: T1/2 in human plasma. The series is classed as ADME.

Take `Cc1ncc([N+](=O)[O-])n1CCOC(=O)c1ccc(CN2CCN(C)CC2)cc1`: the T1/2 (human, in vitro) was determined as 2.4 min.
Still for that read-out and setting: the same measure for `CCN(CC)CCN(CC)Cc1cccc(C(=O)Oc2ccc(NC(C)=O)cc2)c1`: 15 min; for `CCN(CC)Cc1cccc(C(=O)OCC(=O)[C@@]2(O)CCC3C4CCC5=CC(=O)CCC5(C)C4C(O)CC32C)c1` (stereo not given in full): 34 min; for `CC12CCC(=O)C=C1CCC1C2C(O)CC2(C)C1CC[C@]2(O)C(=O)COC(=O)c1cccc(CN2CCOCC2)c1` (stereo not given in full): 62 min.
Consider `CCN(CC)CCN(CC)Cc1cccc(C(=O)OCC(=O)[C@@]2(O)CCC3C4CCC5=CC(=O)CCC5(C)C4C(O)CC32C)c1` (stereo not given in full), for which the T1/2 (human, in vitro) is 8 min.
Consider `O=C(OCn1ncc2c(=O)[nH]cnc21)c1cccc(CN2CCOCC2)c1`, for which, under “human, in vitro”, the T1/2 was found to be 8.5 min.
In the case of `CN1CCN(Cc2ccc(C(=O)OCC(=O)[C@@]3(O)CCC4C5CCC6=CC(=O)CCC6(C)C5C(O)CC43C)cc2)CC1` (stereo not given in full), the T1/2 (human, in vitro) was 147 min.
The same measure, in the same setting: the same measure for `O=C(OCn1ncc2c(=O)[nH]cnc21)c1cccc(Cn2ccnc2)c1`: 3.6 min; for `Cc1ncc([N+](=O)[O-])n1CCOC(=O)c1ccc(CN(C)C)cc1`: 4.7 min.
For `Cn1c(=O)c2c(ncn2COC(=O)c2cccc(Cn3ccnc3)c2)n(C)c1=O`, under “human, in vitro”, the T1/2 came to 0.9 min.
Same read-out and setting: the same measure for `CN1CCN(Cc2cccc(C(=O)OCN3C(=O)NC(c4ccccc4)(c4ccccc4)C3=O)c2)CC1`: 7 min.
`Cc1ncc([N+](=O)[O-])n1CCOC(=O)c1cccc(CN2CCN(C)CC2)c1`: the T1/2 (human, in vitro) was 0.6 min.
Same read-out and setting: to `CC12CCC(=O)C=C1CCC1C2C(O)CC2(C)C1CC[C@]2(O)C(=O)COC(=O)c1ccc(CN2CCOCC2)cc1` (stereo not given in full) belongs 92 min; to `Nc1nc(O)c2ncn(COCCOC(=O)c3ccc(CN4CCOCC4)cc3)c2n1`, 3.7 min.
On the same count and under the same terms, the same measure for `Cc1ncc([N+](=O)[O-])n1CCOC(=O)c1cccc(CN2CCOCC2)c1`: 5 min; for `CCN(CC)Cc1cccc(C(=O)OCC(NC(=O)C(Cl)Cl)C(O)c2ccc([N+](=O)[O-])cc2)c1` (stereo not given): 8 min; for `CCN(CC)CCN(CC)Cc1cccc(C(=O)OCC(NC(=O)C(Cl)Cl)C(O)c2ccc([N+](=O)[O-])cc2)c1` (stereo not given): 0.9 min.
On the same count and under the same terms, the same measure for `C[C@H]1CC2C(C(O)CC3(C)C2CC[C@]3(O)C(=O)COC(=O)c2cccc(CN(C)CCN(C)C)c2)C2(C)C=CC(=O)C=C12` (stereo not given in full): 18 min.
For `CNCc1cccc(C(=O)OCC(=O)[C@@]2(O)CCC3C4CCC5=CC(=O)CCC5(C)C4C(O)CC32C)c1` (stereo not given in full), the T1/2 (human, in vitro) is 25 min.
`CN1CCN(Cc2ccc(C(=O)OCn3ncc4c(=O)[nH]cnc43)cc2)CC1`: the T1/2 (human, in vitro) is 11 min.
On the same count and under the same terms, to `CN1CCN(Cc2cccc(C(=O)OCn3cnc4c3c(=O)n(C)c(=O)n4C)c2)CC1` belongs 0.4 min; to `O=C(OCC(NC(=O)C(Cl)Cl)C(O)c1ccc([N+](=O)[O-])cc1)c1cccc(CN2CCOCC2)c1` (stereo not given), 55 min; to `CC(=O)Nc1ccc(OC(=O)c2ccc(CN(C)C)cc2)cc1`, 87 min.
Regarding `CN1CCN(Cc2cccc(C(=O)OCC(=O)[C@@]3(O)CCC4C5CCC6=CC(=O)CCC6(C)C5C(O)CC43C)c2)CC1` (stereo not given in full), the T1/2 (human, in vitro) turned out to be 15 min.
For the compound `CN1CCN(Cc2cccc(C(=O)OCn3ncc4c(=O)[nH]cnc43)c2)CC1`, the T1/2 (human, in vitro) is recorded as 0.5 min.
Regarding `CC(=O)Nc1ccc(OC(=O)c2ccc(CN3CCN(C)CC3)cc2)cc1`, the T1/2 (human, in vitro) turned out to be 487 min.
For the compound `CC(=O)Nc1ccc(OC(=O)c2cccc(CN3CCOCC3)c2)cc1`, the T1/2 (human, in vitro) is listed as 56 min.
Same read-out and setting: to `CCCNCc1cccc(C(=O)OCC(=O)[C@@]2(O)CCC3C4CCC5=CC(=O)CCC5(C)C4C(O)CC32C)c1` (stereo not given in full) belongs 38 min.
`CCN(CC)Cc1cccc(C(=O)OCn2c(=O)oc3ccc(Cl)cc32)c1`: the T1/2 is on record as 28 min.
With `CN1CCN(Cc2cccc(C(=O)OCC(NC(=O)C(Cl)Cl)C(O)c3ccc([N+](=O)[O-])cc3)c2)CC1` (stereo not given), the T1/2 (human, in vitro) is on record as 5 min.
Same read-out and setting: to `CCN(CC)Cc1cccc(C(=O)OCN2C(=O)NC(c3ccccc3)(c3ccccc3)C2=O)c1` belongs 20 min.
Same read-out and setting: to `C[C@H]1CC2C(C(O)CC3(C)C2CC[C@]3(O)C(=O)COC(=O)c2cccc(CN3CCN(C)CC3)c2)C2(C)C=CC(=O)C=C12` (stereo not given in full) belongs 29 min.
With `CC(=O)Nc1ccc(OC(=O)c2cccc(CN3CCN(C)CC3)c2)cc1`, for the setting “human, in vitro”, the T1/2 turned out to be 27 min.
On the same count and under the same terms, to `CN(C)Cc1ccc(C(=O)OCn2ncc3c(=O)[nH]cnc32)cc1` belongs 9.4 min; to `Cn1c(=O)c2c(ncn2COC(=O)c2cccc(CN3CCOCC3)c2)n(C)c1=O`, 2.8 min; to `CN1CCN(Cc2cccc(C(=O)OCC(=O)[C@@]3(O)CCC4C5CCC6=CC(=O)C=CC6(C)C5C(O)CC43C)c2)CC1` (stereo not given in full), 18 min.
For `O=C(OCn1ncc2c(=O)[nH]cnc21)c1ccc(CN2CCOCC2)cc1`, the T1/2 (human, in vitro) is 1.9 min.
For the compound `Cc1ncc([N+](=O)[O-])n1CCOC(=O)c1ccc(CN2CCOCC2)cc1`, the T1/2 (human, in vitro) is recorded as 0.4 min.
Still for that read-out and setting: to `CCN(CC)Cc1cccc(C(=O)OCn2cnc3c2c(=O)n(C)c(=O)n3C)c1` belongs 0.4 min; to `CCN(CC)Cc1ccc(C(=O)OCC(=O)[C@@]2(O)CCC3C4CCC5=CC(=O)CCC5(C)C4C(O)CC32C)cc1` (stereo not given in full), 107 min.
